In brackets after ≈: the same amount, converted by molar mass. Like-named read-outs stand apart in the source and are kept apart here.
Legend:
Rhizoctonia solani (RHI) = test: In-vitro plant fungicide test; type: cell-based; settings: Rhizoctonia solani; for inhibition of growth at 0.2 ppm: .2 ppm; for inhibition of growth at 0.4 ppm: .4 ppm; for inhibition of growth at 0.8 ppm: .8 ppm
[1] = system: Aureobasidium pullulans (APUL); test: Minimum inhibitory concentration (MIC), broth two-fold serial dilution test; type: cell-based; settings: Aureobasidium pullulans, IIIB, trypticase soy broth (complex media); Table IIIb; read-out: MIC (F) APUL
[2] = system: Staphylococcus aureus (SAUR); test: as above; settings: Staphylococcus aureus, IIIB, read-out: MIC (G+) SAUR, trypticase soy broth (complex media); Table IIIb
Excerpt: When the test is ready to be done, each vessel in the dilution series, except the first vessel, contains an equal volume of compound free broth. The first vessel contains twice the volume of broth with the starting concentration of test compound. One half of the broth from the first vessel is transferred to the second vessel. After being mixed, one half the resulting volume is removed from the second vessel and transferred to the third vessel. The entire cycle is repeated sufficiently to give a series of concentrations amounting to 500, 250, 125, 63, 31, 16, 8, and 4 ppm (or 100, 50, 25, 12.5, 6.2, 3.1, 1.6, and 0.8), respectively.
Each vessel is then inoculated with a cell suspension of the appropriate test organism. Bacteria are grown in broth, fungi on agar slants for a time and at a temperature appropriate to the species being tested, and algae are a mixture of green algae and blue-green bacteria grown in a nutrient media. At the end of the growth period, in the case of bacteria, the broth is vortexed to disperse the cells.
The vessels are then incubated at the appropriate temperature. After the incubation, the vessels are examined for growth/no growth.

Piricularia oryzae (PIR) = test: microbe, parasite or virus in culture; type: cell-based; settings: for inhibition of growth at 0.2 ppm: .2 ppm; for inhibition of growth at 0.4 ppm: .4 ppm; for inhibition of growth at 0.8 ppm: .8 ppm
[3] = system: MIXED COOLING TOWER ALGAE; test: MIC test against mixed cooling tower algae; type: cell-based, green algae and blue-green bacteria; settings: Table VIII
Procedure: The algae culture contains green algae and blue-green bacteria, and is obtained from a cooling tower in Spring House, Pennsylvania. The algae culture is grown in Allen's medium on a rotary shaker under flourescent room lighting. This culture is further diluted with Allen's medium and then added to the test vessel.

8 FUNGI = test: Microbicides secondary test against 8 fungi on Mycophile Agar at pH 5.0 (Table VI); type: cell-based; parameters: key: 1= no growth; 0= growth of the indicated fungi at dose indicated in ppm; settings: for ANIG growth: Aspergillus niger; for APUL growth: Aureobasidium pullulans; for CGLO growth: Chaetomium globosum; for CRES growth: Cladosporium resinae; for GTRA growth: Gloeophyllum trabeum; for PFUN growth: Penicillium funiculosum; for RRUB growth: Rhodotorula rubra; for SSER growth: Sacharomyces cerevisiae
Excerpt: The results of the minimum inhibitory concentration (MIC) tests of compounds of this invention are shown in Tables IIIa IIIb, IIIc, V, VI, VII, and VIII against the microorganisms shown in Table IX.

7 FUNGI = test: Microbicides broad spectrum secondary test against 7 fungi (Table V); type: cell-based; parameters: key: 1= no growth; 0= growth of the indicated fungi at dose indicated in ppm; settings: Mycophile agar, pH 5.0; for ANIG growth: Aspergillus niger; for APUL growth: Aureobasidium pullulans; for CRES growth: Cladosporium resinae; for GTRA growth: Gloeophyllum trabeum; for PFUN growth: Penicillium funiculosum; for RRUB growth: Rhodotorula rubra; for SSER growth: Sacharomyces cerevisiae
Procedure: In the case of fungi, the spores are harvested by pipetting water onto the slant and dislodging the spores with a sterile loop. The cell/spore suspension is standardized by controlling incubation time, temperature, and the volume of the diluent. The suspension is then used to inoculate the vessels containing the broth compound. […] The results of the minimum inhibitory concentration (MIC) tests of compounds of this invention are shown in Tables IIIa IIIb, IIIc, V, VI, VII, and VIII against the microorganisms shown in Table IX. [table]

[4] = Table IVb, read-out: % Control at (ppm) indicated RHI
[5] = Table IVa, read-out: % Control at 25 ppm RHI
[6] = read-out: % Control at (ppm) indicated PIR
[7] = 25 ppm, read-out: % Control at (ppm) indicated PIR
[8] = read-out: % Control at 25 ppm PIR

## CC(=O)NCC(=O)OCC#CI [Compound 28, N-acetylglycine iodopropargyl ester]
Rhizoctonia solani (RHI); [4]
  inhibition of growth at 1.5 ppm: 100%
  inhibition of growth at 6 ppm: 100%
  inhibition of growth at 25 ppm: 100%
  inhibition of growth at 0.2 ppm: 0%
  inhibition of growth at 0.4 ppm: 0%
  inhibition of growth at 0.8 ppm: 0%
Rhizoctonia solani (RHI); [5]
  inhibition of growth at 25 ppm: 100%
[1]
  MIC: 4 µg/mL (≈ 14.2 µM)
[2]
  MIC: 63 µg/mL (≈ 224 µM)
Piricularia oryzae (PIR); [6]
  inhibition of growth at 1.5 ppm: 0%
  inhibition of growth at 6 ppm: 100%
  inhibition of growth at 0.2 ppm: 0%
  inhibition of growth at 0.4 ppm: 0%
  inhibition of growth at 0.8 ppm: 0%
Piricularia oryzae (PIR); [7]
  inhibition of growth at 25 ppm: 100%
Piricularia oryzae (PIR); [8]
  inhibition of growth at 25 ppm: 100%
[3]
  MIC: 6.2 µg/mL (≈ 22.1 µM)
8 FUNGI; 0.2 PPM
  ANIG growth: 0
  APUL growth: 0
  CGLO growth: 0
  CRES growth: 0
  GTRA growth: 0
  PFUN growth: 0
  RRUB growth: 0
  SSER growth: 0
8 FUNGI; 1.0 PPM
  ANIG growth: 0
  APUL growth: 0
  CGLO growth: 0
  CRES growth: 0
  GTRA growth: 0
  PFUN growth: 0
  RRUB growth: 0
  SSER growth: 0
8 FUNGI; 2.5 PPM
  ANIG growth: 0
  APUL growth: 0
  CGLO growth: 0
  CRES growth: 0
  GTRA growth: 0
  PFUN growth: 0
  RRUB growth: 0
  SSER growth: 0
8 FUNGI; 25 PPM
  ANIG growth: 1
  APUL growth: 1
  CGLO growth: 1
  CRES growth: 1
  GTRA growth: 1
  PFUN growth: 1
  RRUB growth: 1
  SSER growth: 1

## O=C(CNC(=O)c1ccccc1)OCC#CI [Compound 29, N-benzoylglycine iodopropargyl ester]
Rhizoctonia solani (RHI); [5]
  inhibition of growth at 25 ppm: 100%
[2]
  MIC: 32 µg/mL (≈ 93.3 µM)
Piricularia oryzae (PIR); [8]
  inhibition of growth at 25 ppm: 100%
[3]
  MIC: 6.2 µg/mL (≈ 18.1 µM)
7 FUNGI; 0.2 PPM
  ANIG growth: 0
  APUL growth: 0
  CRES growth: 0
  GTRA growth: 1
  PFUN growth: 0
  RRUB growth: 0
  SSER growth: 0
7 FUNGI; 1 PPM
  ANIG growth: 0
  APUL growth: 0
  CRES growth: 0
  GTRA growth: 1
  PFUN growth: 0
  RRUB growth: 0
  SSER growth: 0
7 FUNGI; 5 PPM
  ANIG growth: 1
  APUL growth: 1
  CRES growth: 1
  GTRA growth: 1
  PFUN growth: 1
  RRUB growth: 1
  SSER growth: 1
7 FUNGI; 25 PPM
  ANIG growth: 1
  APUL growth: 1
  CRES growth: 1
  GTRA growth: 1
  PFUN growth: 1
  RRUB growth: 1
  SSER growth: 1
8 FUNGI; 0.2 PPM
  ANIG growth: 0
  APUL growth: 0
  CGLO growth: 0
  CRES growth: 0
  GTRA growth: 0
  PFUN growth: 0
  RRUB growth: 0
  SSER growth: 0
8 FUNGI; 1.0 PPM
  ANIG growth: 1
  APUL growth: 0
  CGLO growth: 0
  CRES growth: 0
  GTRA growth: 1
  PFUN growth: 0
  RRUB growth: 0
  SSER growth: 0
8 FUNGI; 2.5 PPM
  ANIG growth: 1
  APUL growth: 0
  CGLO growth: 0
  CRES growth: 0
  GTRA growth: 1
  PFUN growth: 1
  RRUB growth: 0
  SSER growth: 0
8 FUNGI; 25 PPM
  ANIG growth: 1
  APUL growth: 1
  CGLO growth: 1
  CRES growth: 1
  GTRA growth: 1
  PFUN growth: 1
  RRUB growth: 1
  SSER growth: 1

## O=C(CN1C(=O)c2ccccc2C1=O)OCC#CI [Compound 30, N-phthaloylglycine iodopropargyl ester]
Rhizoctonia solani (RHI); [4]
  inhibition of growth at 1.5 ppm: 0%
  inhibition of growth at 6 ppm: 100%
  inhibition of growth at 25 ppm: 100%
  inhibition of growth at 0.2 ppm: 0%
  inhibition of growth at 0.4 ppm: 0%
  inhibition of growth at 0.8 ppm: 0%
Rhizoctonia solani (RHI); [5]
  inhibition of growth at 25 ppm: 90%
[2]
  MIC: > 250 µg/mL
Piricularia oryzae (PIR); [6]
  inhibition of growth at 1.5 ppm: 100%
  inhibition of growth at 6 ppm: 100%
  inhibition of growth at 0.2 ppm: 0%
  inhibition of growth at 0.4 ppm: 0%
  inhibition of growth at 0.8 ppm: 100%
Piricularia oryzae (PIR); [7]
  inhibition of growth at 25 ppm: 100%
Piricularia oryzae (PIR); [8]
  inhibition of growth at 25 ppm: 100%
[3]
  MIC: 6.2 µg/mL (≈ 16.8 µM)
8 FUNGI; 0.2 PPM
  ANIG growth: 0
  APUL growth: 0
  CGLO growth: 0
  CRES growth: 0
  GTRA growth: 0
  PFUN growth: 0
  RRUB growth: 0
  SSER growth: 0
8 FUNGI; 1.0 PPM
  ANIG growth: 0
  APUL growth: 0
  CGLO growth: 0
  CRES growth: 0
  GTRA growth: 0
  PFUN growth: 0
  RRUB growth: 0
  SSER growth: 0
8 FUNGI; 2.5 PPM
  ANIG growth: 0
  APUL growth: 0
  CGLO growth: 1
  CRES growth: 0
  GTRA growth: 1
  PFUN growth: 0
  RRUB growth: 0
  SSER growth: 1
8 FUNGI; 25 PPM
  ANIG growth: 1
  APUL growth: 1
  CGLO growth: 1
  CRES growth: 1
  GTRA growth: 1
  PFUN growth: 1
  RRUB growth: 1
  SSER growth: 1

— patent EP0414533A1, “Use of iodopropargyl esters of alpha-amino acid derivatives as antimicrobial agents” (ROHM AND HAAS COMPANY, priority 1989, dated 1991)
